Test system: blood and splenic leukocytes of wild-type mice
Assay: Wild-type littermate control mice, oral LDC526, blood and spleen analysis
Assay type: in vivo
Excerpt: Another widely used preclinical CLL model are TCL1 transgenic mice. The TCL1 transgenics represent a constitutive CLL model not involving the adoptive transfer of cells. This model mirrors the natural course of human IgVH-unmutated CLL including its disease progression. In addition, this model has also been widely used by others to test novel therapeutic molecules. […] Consecutive blood sampling allowed us to carry out a longitudinal study in individual TCL1 and control mice. For this, we chose a cohort of TCL1 and littermate control mice, which were 9-12 months old (Figure 5A). We chose TCL1 transgenics with high peripheral CLL cell (CD19+CD5+) counts (14.6±7.4/nl, mean±SEM). Given the presumably high leukemic burden in these aged TCL1 mice and the reduced general condition of some NSG mice receiving 75 mg/kg for 5 days we decided to dose TCL1 mice with 50 mg/kg daily for two consecutive days (Figure 5A). As the experiment was longitudinally designed and there was no effect expected of administering carrier to wild-type control mice we omitted this control group and established three experimental groups (Figure 5A). In order to minimize stress by collecting blood specimens we sampled blood three times, 8 days apart (days -5, +3 and +11; Figure 5A). Compared to blood smears prepared before commencing LDC526 treatment a marked decrease of peripheral blood leukocytes and CLL cells was observed two days post the last LDC526 administration to TCL1 transgenic mice (Figure 5B). In contrast to the carrier control treated TCL1 mice, white blood cell counts (WBC) dropped in LDC526-treated wild-type and TCL1 mice (Figure 5C). In comparison to wild-type control mice, where WBC dropped to 34% of baseline values, the WBC decrease in TCL1 mice was more dramatic dropping to 8% of baseline values (Figure 5D).
On day +11 (Figure 5A) the experiment was terminated as planned and spleens of the experimental mice were harvested. To be able to assess the impact of LDC526 on wild-type spleens we included n=3 of non-treated age-matched wild-type littermate mice as an additional experimental control group in the final spleen analysis. A caveat of this final spleen analysis posed the fact that in contrast to the longitudinal blood analysis, baseline spleen data of individual aged TCL1 mice were not available. As longitudinal analysis was not possible, we now compared spleen parameters between cohorts. Importantly, it is unknown to which extent the amount of circulating peripheral blood TCL1 CLL cells determined at baseline correlates with splenomegaly. […]
All mice were bred and housed at the University Hospital Essen animal care facility. […] Peripheral blood counts were determined with the VetABC analyzer (scil, Viernheim, Germany). […]

COc1cc(F)ccc1-c1ncnc(Nc2cccc(CS(N)(=O)=O)c2)n1 [LDC526, (3-((4-(4-fluoro-2-methoxyphenyl)-1,3,5-triazin-2-yl)amino)phenyl)methane-sulfonamide]
WBC, percent of baseline values (50 mg/kg daily for two days, day +3): 34%
concentration of wild-type blood T cells (50 mg/kg for two days): halved
splenic B cell numbers, percent of untreated mice (day +11): 31%
B cells, percent of baseline levels (peripheral blood): 3.7%
